# Measurements: article PMC6100082, “Pyridine-Ureas as Potential Anticancer Agents: Synthesis and In Vitro Biological Evaluation” (Molecules : A Journal of Synthetic Chemistry and Natural …, 2018)
# Key:
# NCI 58 cell line panel = assay: NCI one-dose SRB assay, whole panel / subpanel summary; type: cell-based, human
# Method: (§1) The structures of all the newly prepared pyridine-ureas 8a–n were submitted to the National Cancer Institute (NCI) Developmental Therapeutic Program. Eight compounds 8b, 8d, 8e, 8i, 8j and 8l–n were selected to be examined for their in vitro growth inhibitory activity. The anticancer assays were carried out according to the protocol of the Drug Evaluation Branch, NCI, Bethesda. The selected pyridine-ureas were tested at one dose primary anticancer assay against a panel of approximately 58 cancer lines (concentration 10^−5 M). The tested human cancer cell lines emerged from nine different cancer subtypes: leukemia, colon, melanoma, ovarian, lung, CNS, renal, breast and prostate cancers. The sulforhodamine B (SRB) protein assay was adopted to estimate the cell viability and growth. The results were reported as mean-graph of the percentage growth of the treated cells, and presented as percentage growth inhibition (GI%) caused by the test compounds (Table 2).
# (§2) The anticancer assays were performed in accordance with the protocol of the Drug Evaluation Branch, NCI, Bethesda. A 48 h drug exposure protocol was used and sulforhodamine B (SRB) protein assay was applied to estimate the cell viability and growth, as reported earlier.
# SF-295 = assay: NCI one-dose SRB assay (CNS Cancer); type: cell-based, human
# Method: as §1, §2
# SNB-19 = assay: NCI one-dose SRB assay (CNS Cancer); type: cell-based, human
# Method: as §1, §2
# SNB-75 = assay: NCI one-dose SRB assay (CNS Cancer); type: cell-based, human
# Method: as §1, §2
# UACC-257 = assay: NCI one-dose SRB assay (Melanoma); type: cell-based, human
# Summary of the method: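 Tested once at 10^−5 M over 48 h. SRB protein staining measured growth. GI% values.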
# IGROV1 = assay: NCI one-dose SRB assay (Ovarian Cancer); type: cell-based, human
# Method: as §1, §2
# NCI/ADR-RES = assay: NCI one-dose SRB assay (Ovarian Cancer); type: cell-based, human
# Method: as §1, §2
# OVCAR-3 = assay: NCI one-dose SRB assay (Ovarian Cancer); type: cell-based, human
# Method: as §1, §2
# OVCAR-4 = assay: NCI one-dose SRB assay (Ovarian Cancer); type: cell-based, human
# Method: as §1, §2
# OVCAR-5 = assay: NCI one-dose SRB assay (Ovarian Cancer); type: cell-based, human
# Method: as §1, §2
# OVCAR-8 = assay: NCI one-dose SRB assay (Ovarian Cancer); type: cell-based, human
# Method: as §1, §2
# SK-OV-3 = assay: NCI one-dose SRB assay (Ovarian Cancer); type: cell-based, human
# Method: as §1, §2
# 786-0 = assay: NCI one-dose SRB assay (Renal Cancer); type: cell-based, human
# Method: as §1, §2
# A498 = assay: NCI one-dose SRB assay (Renal Cancer); type: cell-based, human
# Method: as §1, §2
# RXF 393 = assay: NCI one-dose SRB assay (Renal Cancer); type: cell-based, human
# Method: as §1, §2
# SN12C = assay: NCI one-dose SRB assay (Renal Cancer); type: cell-based, human
# Method: as §1, §2
# TK-10 = assay: NCI one-dose SRB assay (Renal Cancer); type: cell-based, human
# Method: as §1, §2
# UO-31 = assay: NCI one-dose SRB assay (Renal Cancer); type: cell-based, human
# Method: as §1, §2
# DU-145 = assay: NCI one-dose SRB assay (Prostate); type: cell-based, human
# Method: as §1, §2
# PC-3 = assay: NCI one-dose SRB assay (Prostate); type: cell-based, human
# Method: as §1, §2
# BT-549 = assay: NCI one-dose SRB assay (Breast Cancer); type: cell-based, human
# Method: as §1, §2
# HS 578T = assay: NCI one-dose SRB assay (Breast Cancer); type: cell-based, human
# Method: as §1, §2
# MCF7 = assay: NCI one-dose SRB assay (Breast Cancer); type: cell-based, human
# Method: as §1, §2
# MDA-MB-231 = assay: NCI one-dose SRB assay (Breast Cancer); type: cell-based, human
# Method: as §1, §2
# MDA-MB-468 = assay: NCI one-dose SRB assay (Breast Cancer); type: cell-based, human
# Method: as §1, §2
# T-47D = assay: NCI one-dose SRB assay (Breast Cancer); type: cell-based, human
# Method: as §1, §2
# [1] = Homo sapiens, 10 μM, read-out: Percentage growth inhibition (GI%)
structure (smiles),measurement,setting,value
"COc1ccc(-c2ccc(NC(=O)Nc3cccc(Cl)c3)c(C)n2)cc1OC [Compound 8j, 1-(3-Chlorophenyl)-3-(6-(3,4-dimethoxyphenyl)-2-methylpyridin-3-yl) Urea]",inhibition at 10 µM,"NCI 58 cell line panel; Homo sapiens, 10 μM, one dose, read-out: mean inhibition (mean % growth inhibition over NCI 58 cell line panel)",22 to 34%
same,Mean Growth Percent,"NCI 58 cell line panel; One Dose Mean Graph, 1.00E-5 Molar",78.01%
same,inhibition at 10 µM,"SF-295; Homo sapiens, SF-295, 10 μM, read-out: Percentage growth inhibition (GI%)",17%
same,Growth Percent,"SF-295; SF-295, 1.00E-5 Molar",83.73%
same,inhibition at 10 µM,"SNB-19; Homo sapiens, SNB-19, 10 μM, read-out: Percentage growth inhibition (GI%)",< 10%
same,Growth Percent,"SNB-19; SNB-19, 1.00E-5 Molar",97.00%
same,inhibition at 10 µM,"SNB-75; Homo sapiens, SNB-75, 10 μM, read-out: Percentage growth inhibition (GI%)",16%
same,Growth Percent,"SNB-75; SNB-75, 1.00E-5 Molar",84.12%
same,inhibition at 10 µM,"UACC-257; Homo sapiens, UACC-257, 10 μM, read-out: Percentage growth inhibition (GI%)",29%
same,Growth Percent,"UACC-257; UACC-257, 1.00E-5 Molar",71.26%
same,inhibition at 10 µM,"IGROV1; Homo sapiens, IGROV-1, IGROV1, 10 μM, read-out: Percentage growth inhibition (GI%)",< 10%
same,Growth Percent,"IGROV1; IGROV1, 1.00E-5 Molar",100.28%
same,Growth Percent,NCI/ADR-RES; 1.00E-5 Molar,84.81%
same,inhibition at 10 µM,NCI/ADR-RES; [1],16%
same,inhibition at 10 µM,"OVCAR-3; Homo sapiens, OVCAR-3, 10 μM, read-out: Percentage growth inhibition (GI%)",10%
same,Growth Percent,"OVCAR-3; OVCAR-3, 1.00E-5 Molar",90.37%
same,inhibition at 10 µM,"OVCAR-4; Homo sapiens, OVCAR-4, 10 μM, read-out: Percentage growth inhibition (GI%)",< 10%
same,Growth Percent,"OVCAR-4; OVCAR-4, 1.00E-5 Molar",91.75%
same,inhibition at 10 µM,"OVCAR-5; Homo sapiens, OVCAR-5, 10 μM, read-out: Percentage growth inhibition (GI%)",12%
same,Growth Percent,"OVCAR-5; OVCAR-5, 1.00E-5 Molar",88.21%
same,inhibition at 10 µM,"OVCAR-8; Homo sapiens, OVCAR-8, 10 μM, read-out: Percentage growth inhibition (GI%)",10%
same,Growth Percent,"OVCAR-8; OVCAR-8, 1.00E-5 Molar",90.16%
same,inhibition at 10 µM,"SK-OV-3; Homo sapiens, SK-OV-3, 10 μM, read-out: Percentage growth inhibition (GI%)",17%
same,Growth Percent,"SK-OV-3; SK-OV-3, 1.00E-5 Molar",83.62%
same,Growth Percent,"786-0; 786-0, 1.00E-5 Molar",71.87%
same,inhibition at 10 µM,"786-0; Homo sapiens, 786-0, 10 μM, read-out: Percentage growth inhibition (GI%)",29%
same,Growth Percent,"A498; A498, 1.00E-5 Molar",69.84%
same,inhibition at 10 µM,"A498; Homo sapiens, A498, 10 μM, read-out: Percentage growth inhibition (GI%)",31%
same,inhibition at 10 µM,"RXF 393; Homo sapiens, RXF 393, 10 μM, read-out: Percentage growth inhibition (GI%)",18%
same,Growth Percent,"RXF 393; RXF 393, 1.00E-5 Molar",82.62%
same,Growth Percent,SN12C; 1.00E-5 Molar,86.84%
same,inhibition at 10 µM,SN12C; [1],14%
same,inhibition at 10 µM,"TK-10; Homo sapiens, TK-10, 10 μM, read-out: Percentage growth inhibition (GI%)",< 10%
same,Growth Percent,"TK-10; TK-10, 1.00E-5 Molar",99.31%
same,inhibition at 10 µM,"UO-31; Homo sapiens, UO-31, 10 μM, read-out: Percentage growth inhibition (GI%)",21%
same,Growth Percent,"UO-31; UO-31, 1.00E-5 Molar",79.44%
same,Growth Percent,"DU-145; DU-145, 1.00E-5 Molar",101.79%
same,inhibition at 10 µM,"DU-145; Homo sapiens, DU-145, 10 μM, read-out: Percentage growth inhibition (GI%)",< 10%
same,inhibition at 10 µM,"PC-3; Homo sapiens, PC-3, 10 μM, read-out: Percentage growth inhibition (GI%)",61%
same,Growth Percent,"PC-3; PC-3, 1.00E-5 Molar",39.30%
same,Growth Percent,"BT-549; BT-549, 1.00E-5 Molar",91.71%
same,inhibition at 10 µM,"BT-549; Homo sapiens, BT-549, 10 μM, read-out: Percentage growth inhibition (GI%)",< 10%
same,Growth Percent,HS 578T; 1.00E-5 Molar,95.46%
same,inhibition at 10 µM,HS 578T; [1],< 10%
same,inhibition at 10 µM,"MCF7; Homo sapiens, MCF7, 10 μM, read-out: Percentage growth inhibition (GI%)",25%
same,Growth Percent,"MCF7; MCF7, 1.00E-5 Molar",75.86%
same,inhibition at 10 µM,"MDA-MB-231; Homo sapiens, MDA-MB-231, 10 μM, read-out: Percentage growth inhibition (GI%)",13%
same,Growth Percent,"MDA-MB-231; MDA-MB-231/ATCC, 1.00E-5 Molar",87.05%
same,inhibition at 10 µM,"MDA-MB-468; Homo sapiens, MDA-MB-468, 10 μM, read-out: Percentage growth inhibition (GI%)",29%
same,Growth Percent,"MDA-MB-468; MDA-MB-468, 1.00E-5 Molar",71.36%
same,Growth Percent,T-47D; 1.00E-5 Molar,49.90%
same,inhibition at 10 µM,"T-47D; Homo sapiens, T47D, 10 μM, read-out: Percentage growth inhibition (GI%)",51%
same,melting point,,249 to 250 °C
